Source: ChEMBL document CHEMBL1156447, “Cyanidin-3-rutinoside, a natural polyphenol antioxidant, selectively kills leukemic cells by induction of oxidative stress” (J Biol Chem, 2007)
The source made the active and inactive calls. The rule behind the calls is not given here.

What was measured:
MOLT-4 = assay: Induction of apoptosis in human MOLT4 cells after 18 hrs by Hoechst staining; format: functional, cell-based
HL-60 [1] = assay: Increase in intracellular hydrogen peroxide level in human HL60 cells after 1 hr by phenol red method; format: functional, cell-based
HL-60 [2] = assay: Suppression of induction of apoptosis in human HL60 cells at 80 uM after 18 hrs by Hoechst staining in presence of SP600125; format: functional, cell-based
CCRF-CEM [3] = assay: Suppression of induction of apoptosis in human CCRF-CEM cells at 80 uM after 24 hrs by Hoechst staining in presence of catalase; format: functional, cell-based
[4] = target: T1, MAP kinase p38 (Homo sapiens) (UniProt O15264+Q15759+Q16539+P53778); assay: Increase in p38 MAPK phosphorylation in N-acetyl-cysteine pretreated human HL60 cells at 80 uM after 2 hrs by immunoblot analysis; details: HL-60
HL-60 [5] = assay: Suppression of induction of apoptosis in human HL60 cells assessed as inhibition of mitochondrial release of Smac at 80 uM after 18 hrs […] in presence of SP600125; format: functional, cell-based
HL-60 [6] = assay: Suppression of induction of apoptosis in human HL60 cells at 80 uM after 18 hrs by Hoechst staining in presence of N-acetyl-cysteine; format: functional, cell-based
HL-60 [7] = assay: Suppression of induction of apoptosis in human HL60 cells at 80 uM after 18 hrs by Hoechst staining in presence of hydrogen peroxide; format: functional, cell-based
HL-60 [8] = assay: Induction of apoptosis in human HL60 cells overexpressing human Bcl XL after 18 hrs by Hoechst staining; format: functional, cell-based
[9] = target: Apoptosis regulator BAX (Homo sapiens) (UniProt Q07812); assay: Activation of Bax in human HL60 cells assessed as mitochondrial translocation at 80 uM after 8 hrs by immunostaining; details: HL-60
HL-60 [10] = assay: Suppression of induction of apoptosis in human HL60 cells at 80 uM after 18 hrs by Hoechst staining in presence of catalase; format: functional, cell-based
HL-60 [11] = assay: Suppression of induction of apoptosis in human HL60 cells at 60 uM after 18 hrs in presence of Z-VAD; format: functional, cell-based
[12] = target: T2, c-Jun N-terminal kinase, JNK (Homo sapiens) (UniProt P45983+P53779+P45984); assay: Increase in JNK phosphorylation in human HL60 cells at 80 uM after 8 hrs by immunoblot analysis; format: cell-based; details: HL-60
[13] = target: Bcl-2-like protein 11 (Homo sapiens) (UniProt O43521); assay: Increase in Bim EL phosphorylation in human HL60 cells at 80 uM after 8 hrs by immunoblot analysis; format: cell-based; details: HL-60
[14] = target: T1, MAP kinase p38 (Homo sapiens); assay: Increase in p38 MAPK phosphorylation in catalase pretreated human HL60 cells at 80 uM after 8 hrs by immunoblot analysis; format: cell-based; details: HL-60
HL-60 [15] = assay: Induction of apoptosis in human HL60 cells assessed as caspase 3 activation; format: functional, cell-based
HL-60 [16] = assay: Suppression of induction of apoptosis in human HL60 cells at 60 uM after 18 hrs in presence of DEVD-CHO; format: functional, cell-based
HL-60 [17] = assay: Induction of apoptosis in human HL60 cells assessed as cytochrome c release at 80 uM by immunoblot analysis; format: functional, cell-based
CCRF-CEM [18] = assay: Induction of apoptosis in human CCRF-CEM cells after 18 hrs by Hoechst staining; format: functional, cell-based
HL-60 [19] = assay: Suppression of induction of apoptosis in human HL60 cells assessed as inhibition of mitochondrial release of cytochrome c at 80 uM after 18 hrs […] in presence of SP600125; format: functional, cell-based
[20] = Antioxidant activity assessed as inhibition of superoxide production; format: functional
HL-60 [21] = assay: Increase in hydrogen peroxide accumulation in human HL60 cells at 80 uM by flow cytometry; format: functional, cell-based
HL-60 [22] = assay: Induction of apoptosis in human HL60 cells after 18 hrs by Hoechst 33258 staining; format: functional, cell-based
[23] = Antioxidant activity assessed as inhibition of peroxyl radical production; format: functional
HL-60 [24] = assay: Induction of apoptosis in human HL60 cells overexpressing human Bcl2 after 18 hrs by Hoechst staining; format: functional, cell-based
HL-60 [25] = assay: Suppression of induction of apoptosis in human HL60 cells assessed as inhibition of mitochondrial release of cytochrome c at 80 uM after 18 hrs […] in presence of SB-203580; format: functional, cell-based
CCRF-CEM [26] = assay: Suppression of induction of apoptosis in human CCRF-CEM cells at 80 uM after 24 hrs by Hoechst staining in presence of N-acetyl-cysteine; format: functional, cell-based
[27] = Antioxidant activity in Ti(IV)-hydrogen peroxide complex system assessed as inhibition of hydrogen peroxide production; format: functional
CCRF-CEM [28] = assay: Induction of apoptosis in human CCRF-CEM cells expressing shRNA against Bim at 80 uM after 24 hrs by Hoechst staining; format: functional, cell-based
PBMC = assay: Antioxidant activity in human PBMC assessed as reduction in intracellular peroxide levels by flow cytometry; format: functional, cell-based
HL-60 [29] = assay: Induction of apoptosis in human HL60 cells at 60 uM by Hoechst 33258 staining; format: functional, cell-based; details: TDE = time-dependent effect
HL-60 [30] = assay: Suppression of induction of apoptosis in human HL60 cells assessed as inhibition of mitochondrial release of Smac at 80 uM after 18 hrs […] in presence of SB-203580; format: functional, cell-based
CCRF-CEM [31] = assay: Suppression of induction of apoptosis in human CCRF-CEM cells at 80 uM after 24 hrs by Hoechst staining in presence of SB-203580; format: functional, cell-based
Daudi = assay: Induction of apoptosis in human Daudi cells after 18 hrs by Hoechst staining; format: functional, cell-based
HL-60 [32] = assay: Induction of apoptosis in human HL60 cells assessed as caspase 9 activation; format: functional, cell-based
[33] = target: T3, Bcl-2 homologous antagonist/killer (Homo sapiens) (UniProt Q16611); assay: Activation of Bak in human HL60 cells assessed as oligomerization and conformational change at 80 uM after 8 hrs by immunostaining; format: functional, cell-based; details: HL-60
T3 sequence (whole entry): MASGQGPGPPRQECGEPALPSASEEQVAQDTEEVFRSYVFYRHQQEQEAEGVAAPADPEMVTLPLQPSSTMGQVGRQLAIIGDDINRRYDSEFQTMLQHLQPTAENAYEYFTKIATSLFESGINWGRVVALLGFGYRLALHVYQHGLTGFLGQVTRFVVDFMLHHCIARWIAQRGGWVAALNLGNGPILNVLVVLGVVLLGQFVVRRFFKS

[34] = target: T2, c-Jun N-terminal kinase, JNK (Homo sapiens); assay: Increase in JNK catalase pretreated human HL60 cells at 80 uM after 8 hrs by immunoblot analysis; format: cell-based; details: HL-60
HL-60 [35] = assay: Suppression of induction of apoptosis in human HL60 cells at 80 uM after 18 hrs by Hoechst staining in presence of SB-203580; format: functional, cell-based
HL-60 [36] = assay: Induction of apoptosis in human HL60 cells assessed as Smac release at 80 uM by immunoblot analysis; format: functional, cell-based
[37] = target: T1, MAP kinase p38 (Homo sapiens); assay: Increase in p38 MAPK phosphorylation in human HL60 cells at 80 uM after 8 hrs by immunoblot analysis; format: cell-based; details: HL-60
[38] = target: T2, c-Jun N-terminal kinase, JNK (Homo sapiens); assay: Increase in JNK phosphorylation in N-acetyl-cysteine pretreated human HL60 cells at 80 uM after 8 hrs by immunoblot analysis; format: cell-based; details: HL-60

Chain of Apoptosis regulator BAX (Homo sapiens) (Q07812 whole entry): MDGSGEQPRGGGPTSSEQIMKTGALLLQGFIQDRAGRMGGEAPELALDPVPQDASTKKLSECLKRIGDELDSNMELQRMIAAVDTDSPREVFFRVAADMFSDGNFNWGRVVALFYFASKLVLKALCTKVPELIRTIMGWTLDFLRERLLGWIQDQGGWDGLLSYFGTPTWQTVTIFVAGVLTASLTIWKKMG
Chain of Bcl-2-like protein 11 (Homo sapiens) (O43521 whole entry, looked up): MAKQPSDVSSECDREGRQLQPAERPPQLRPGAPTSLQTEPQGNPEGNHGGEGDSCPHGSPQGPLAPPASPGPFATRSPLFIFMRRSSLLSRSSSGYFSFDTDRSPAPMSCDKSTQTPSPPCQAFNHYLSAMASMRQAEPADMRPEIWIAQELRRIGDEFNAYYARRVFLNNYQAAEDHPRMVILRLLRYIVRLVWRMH

Question: With `C[C@@H]1O[C@@H](OC[C@H]2O[C@@H](Oc3cc4c(O)cc(O)cc4[o+]c3-c3ccc(O)c(O)c3)[C@H](O)[C@@H](O)[C@@H]2O)[C@H](O)[C@H](O)[C@H]1O` as the molecule, how does the Activity (MOLT-4) read?
Answer: The Activity was “Active”.

Question: What about the Activity (HL-60 [1]) of the same molecule?
Answer: The Activity was “Active”.

Question: What about the Activity (HL-60 [2]) of the same molecule?
Answer: Its Activity is “Active”.

Question: And the Activity (CCRF-CEM [3])?
Answer: Its Activity is “Active”.

Question: And the Activity [4]?
Answer: The Activity was “inactive”.

Question: And the Activity (HL-60 [5])?
Answer: Its Activity is “Active”.

Question: And the Activity (HL-60 [6])?
Answer: Its Activity is “Active”.

Question: And the Activity (HL-60 [7])?
Answer: The Activity was “Active”.

Question: And the Activity (HL-60 [8])?
Answer: Its Activity is “inactive”.

Question: What about the Activity [9] of the same molecule?
Answer: Its Activity is “Active”.

Question: And the Activity (HL-60 [10])?
Answer: Its Activity is “Active”.

Question: What about the Activity (HL-60 [11]) of the same molecule?
Answer: The Activity was “Active”.

Question: And the Activity [12]?
Answer: The Activity was “Active”.

Question: What about the Activity [13] of the same molecule?
Answer: The Activity was “Active”.

Question: And the Activity [14]?
Answer: The Activity was “inactive”.

Question: What about the Activity (HL-60 [15]) of the same molecule?
Answer: The Activity was “Dose-dependent effect”.

Question: And the Activity (HL-60 [16])?
Answer: The Activity was “Active”.

Question: What about the Activity (HL-60 [17]) of the same molecule?
Answer: The Activity was “Active”.

Question: And the Activity (CCRF-CEM [18])?
Answer: Its Activity is “Active”.

Question: What about the Activity (HL-60 [19]) of the same molecule?
Answer: The Activity was “Active”.

Question: And the Activity [20]?
Answer: Its Activity is “Active”.

Question: And the Activity (HL-60 [21])?
Answer: Its Activity is “Active”.

Question: And the Activity (HL-60 [22])?
Answer: The Activity was “Dose-dependent effect”.

Question: What about the Activity [23] of the same molecule?
Answer: Its Activity is “Active”.

Question: What about the Activity (HL-60 [24]) of the same molecule?
Answer: The Activity was “inactive”.

Question: And the Activity (HL-60 [25])?
Answer: Its Activity is “Active”.

Question: What about the Activity (CCRF-CEM [26]) of the same molecule?
Answer: The Activity was “Active”.

Question: What about the Activity [27] of the same molecule?
Answer: The Activity was “Dose-dependent effect”.

Question: And the Activity (CCRF-CEM [28])?
Answer: The Activity was “inactive”.

Question: And the Activity (PBMC)?
Answer: The Activity was “Active”.

Question: And the Activity (HL-60 [29])?
Answer: Its Activity is “tde”.

Question: And the Activity (HL-60 [30])?
Answer: The Activity was “Active”.

Question: And the Activity (CCRF-CEM [31])?
Answer: The Activity was “Active”.

Question: And the Activity (Daudi)?
Answer: The Activity was “Active”.

Question: And the Activity (HL-60 [32])?
Answer: The Activity was “Dose-dependent effect”.

Question: And the Activity [33]?
Answer: The Activity was “Active”.

Question: What about the Activity [34] of the same molecule?
Answer: The Activity was “inactive”.

Question: What about the Activity (HL-60 [35]) of the same molecule?
Answer: Its Activity is “Active”.

Question: And the Activity (HL-60 [36])?
Answer: Its Activity is “Active”.

Question: And the Activity [37]?
Answer: Its Activity is “Active”.

Question: And the Activity [38]?
Answer: Its Activity is “inactive”.
